In patent US4897490A, “Antihypercholesterolemic tetrazole compounds” (Bristol-Meyers Company, priority 1988, dated 1990):
Read-outs that look alike come from different tables or passages of the source.

Assays:
[1] = target: T1, rat liver HMG-CoA reductase (Rattus norvegicus, UniProt P51639); assay: Test A: In Vitro Inhibition of Microsomal HMG-CoA Reductase; format: biochemical; settings: microsomal rat liver enzyme; [3-14C]-HMG-CoA 0.33 mM, NADPH 3.0 mM; pH 7.2
T1 construct: from tissue; host or cells: rat liver microsomes
T1 sequence (P51639 1-887): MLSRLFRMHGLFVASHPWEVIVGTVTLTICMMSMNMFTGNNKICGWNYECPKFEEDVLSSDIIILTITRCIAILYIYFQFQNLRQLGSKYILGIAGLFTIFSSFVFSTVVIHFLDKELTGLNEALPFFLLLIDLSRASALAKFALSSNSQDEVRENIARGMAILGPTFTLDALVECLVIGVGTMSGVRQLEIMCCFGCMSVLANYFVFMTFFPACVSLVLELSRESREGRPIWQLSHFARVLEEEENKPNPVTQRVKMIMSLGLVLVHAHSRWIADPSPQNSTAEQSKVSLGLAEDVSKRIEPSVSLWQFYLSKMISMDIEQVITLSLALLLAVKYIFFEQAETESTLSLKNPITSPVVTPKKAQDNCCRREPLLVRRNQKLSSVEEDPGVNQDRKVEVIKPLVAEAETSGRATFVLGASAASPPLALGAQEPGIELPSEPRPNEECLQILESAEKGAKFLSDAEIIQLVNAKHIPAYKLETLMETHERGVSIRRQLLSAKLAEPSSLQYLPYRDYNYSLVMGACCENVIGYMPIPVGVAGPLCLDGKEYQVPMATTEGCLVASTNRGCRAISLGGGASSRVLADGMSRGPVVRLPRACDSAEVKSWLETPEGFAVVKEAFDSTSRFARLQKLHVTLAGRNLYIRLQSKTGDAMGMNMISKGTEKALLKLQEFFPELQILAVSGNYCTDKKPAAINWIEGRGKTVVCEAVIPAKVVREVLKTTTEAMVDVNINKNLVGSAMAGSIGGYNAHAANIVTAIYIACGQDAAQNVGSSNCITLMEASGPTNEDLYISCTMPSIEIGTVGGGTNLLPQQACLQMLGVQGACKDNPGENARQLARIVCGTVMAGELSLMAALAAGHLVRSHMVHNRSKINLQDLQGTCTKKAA
Method: Test A: In Vitro Inhibition of Microsomal HMG-CoA Reductase:
The intact, fully activated microsomal form of rat liver HMG-CoA reductase (subunit MW ca 100,000 daltons) was prepared as described by Parker, et al., Biochem. Biophys. Res. Commun., 125, 629-635 (1984), and used as the source of enzyme for assays. HMG-CoA reductase activity was determined essentially by the method of Shapiro, et al., Biochem. Biophys. Acta., 370, 369-377 (1974), with modifications as described by Ingebritsen and Gibson, Meth. Enzymol. 71, 486-497 (1981) with the exception that the internal standard ^3 H-mevalonolactone is added after termination of the assay. In this procedure, the enzyme is assayed by measuring the formation of product, ^14 C-mevalonate, from the substrate, [3-^14 C]-HMG-CoA, in the presence of NADPH. The ^14 C-mevalonate is converted to its lactone and isolated by silica thin-layer chromatography (Whatman LK5D, developed in 50:50 benzene:acetone) in the presence of ^3 H-mevalonolactone as an internal standard. Assays were conducted under conditions in which product formation was linear with respect to time and enzyme concentration.
To measure reductase inhibition, test compounds dissolved in water or dimethylsulfoxide and diluted in buffer A (50 mM imidazole-HCl, 250 mM NaCl, 1 mM EDTA, 1 mM EGTA, 5 mM DTT, 20 μM leupeptin, pH=7.2) were incubated with aliquots of microsomes (80-160 μg protein in buffer A) followed by addition of d,1-[3-^14 C]-HMG-CoA (0.33 mM, 2.0 dpm/picomole) and NADPH (3.0 mM). The 50 percent inhibitory concentration (IC50) for each compound in Table 1 was calculated from the linear regression line of the percent decrease (from control) in enzyme activity vs. log concentration of inhibitor, determined using at least 4 dilutions of each test compound assayed in duplicate.

[2] = tested on: de novo biosynthesis of cholesterol; assay: Test C: In Vivo Acute Cholesterol Biosynthesis Inhibition in Rats; set-up: species or system male Wistar rats; settings: Rattus norvegicus, 1 h
Method: Test C: In Vivo Acute Cholesterol Biosynthesis Inhibition in Rats:
Male Wistar rats (160-200 g, housed 2 per cage) were maintained on normal diet (Purina Rat Chow and water, ad libitum) for at least 7 days on a reversed lighting schedule (7:00 a.m. to 5:00 p.m. dark). Food was removed 15 hours prior to dosing. Compounds were administered at 8:00 a.m. by intragastric intubation using 0.5-1.0 mL of water or propylene glycol solutions of sodium salts, lactones, or esters of the test compounds. Controls received equal volumes of the vehicle.
Thirty minutes after receiving the test substances, rats were injected intraperitoneally with 0.9 mL of 0.9% NaCl containing approximately 120 μCi per kg body weight of sodium [1-^14 C] acetate (1-3 mCi/mmol). After a 60 minute incorporation period, rats were sacrificed and liver and blood samples were obtained. Aliquots of plasma (1.0 mL) obtained by centrifugation of heparin+EDTA-treated blood, and aliquots of liver homogenates (equivalent to 0.50 g liver wet weight) were taken for determination of radiolabeled 3β-hydroxy sterols. Sterol isolation for the liver samples followed the method of Kates as described above for the hepatocyte procedure (Test B) while the plasma samples were directly saponified followed by isolation of the digitonin-precipitable sterols. ^14 C-labelled sterols were quantified by liquid scintillation counting (efficiency corrected). Mean percent inhibition of ^14 C incorporated into liver and into plasma cholesterol were calculated for groups of treated animals and compared to mean values for controls conducted simultaneously.
Therefore, Test C provides information on the ability of test substances to suppress the de novo biosynthesis of cholesterol in vivo in rats with oral dosing.

[3] = tested on: Isolated Hepatocyte Cholesterol Biosynthesis; assay: Test B: Isolated Hepatocyte Cholesterol Biosynthesis Assay; format: cell-based, male Wistar rats; settings: isolated rat hepatocytes, 10 min preincubation, 60 minutes at 37°, incorporation into sterols, read-out: Inhibition of Isolated Hepatocyte Cholesterol Biosynthesis IC50
Method: Test B: Isolated Hepatocyte Cholesterol Biosynthesis Assay:
Intact parenchymal hepatocytes were isolated from male Wistar rats (180-280 g) fed cholestyramine-containing or normal diet, using the collagenase perfusion method essentially as described by Seglen, in Methods in Cell Biology (D. Prescott, ed.) Vol. 13, pp. 29-83, Academic Press, New York (1976). Cell preparations were used only when viability (trypan blue exclusion) exceeded 90%. Cholesterol biosynthesis was determined as the incorporation by hepatocytes of ^3 H from [^3 H]-water into total (cellular plus medium) 3β-hydroxy sterols as per Ingebritsen, et al., J. Biol. Chem., 254, 9986-9989 (1979). Hepatocyte sterols and lipids were isolated by a modification of the methods described by Kates, in Techniques in Lipidology, (M. Kates, ed.), pp. 349, 360-363, North Holland Publ. Co., Amsterdam, 1972. […] The ^3 H-labelled sterols are quantified by liquid scintillation and corrected for counting efficiency. […]
Cells were preincubated for 10 minutes with or without aliquots of test compounds added as water solutions of sodium salts or as dimethylsulfoxide solutions of lactones. […] The IC50 for inhibition of sterol synthesis by test compounds which is shown in Table 2 was calculated from the linear regression curve of % inhibition (compared to controls) vs. log concentration using at least 4 concentrations of inhibitor. […]

| SMILES | IC50 [1] | ED50 ([2]; read-out: 50% Inhibitory Dose (ED50), liver cholesterol, oral (intragastric), liver, 14C-acetate incorporation 60 minutes) | ED50 ([2]; read-out: 50% Inhibitory Dose (ED50), plasma cholesterol, oral (intragastric), plasma, 14C-acetate incorporation 60 minutes) | IC50 [3] | ED50 ([2]; oral (intragastric), 14C-acetate incorporation 60 minutes, read-out: ED50 value (reference agent, tissue not stated)) |
| --- | --- | --- | --- | --- | --- |
| CCOC(=O)C[C@H](O)C[C@H](O)/C=C/C(=C(c1ccc(F)cc1)c1ccc(F)cc1)c1nnnn1C (relative stereo) [Example 11, Ethyl (±)-erythro-9,9-bis(4-fluorophenyl)-3,5-dihydroxy-8-(1-methyl-1H-tetrazol-5-yl)-6,8-nonadienoate] | > 330000 nM | – | – | – | – |
| Cn1nnnc1C(/C=C/[C@@H](O)C[C@@H](O)CC(=O)O)=C(c1ccc(F)cc1)c1ccc(F)cc1 (relative stereo) [Example 12, Sodium (±)-erythro-9,9-bis(4-fluorophenyl)-3,5-dihydroxy-8-(1-methyl-1H-tetrazol-5-yl)-6,8-nonadionate] | 37 ± 10 nM | 0.08 mg/kg | 0.08 mg/kg | 23 ± 11 nM | – |
| Cn1nnnc1C(/C=C/[C@@H]1C[C@@H](O)CC(=O)O1)=C(c1ccc(F)cc1)c1ccc(F)cc1 (relative stereo) [Example 13, Trans-6-[4,4-bis(4-fluorophenyl)-3-(1-methyl-1H-tetrazol-5-yl)-1,3-butadienyl]-tetrahydro-4-hydroxy-2H-pyran-2-one] | 1090 ± 290 nM | – | – | – | – |
| Cn1nnnc1C(/C=C/C=C/[C@@H](O)C[C@@H](O)CC(=O)O)=C(c1ccc(F)cc1)c1ccc(F)cc1 (relative stereo) [Example 15, Sodium (±)-erythro-11,11-bis(4-fluorophenyl)-3,5-dihydroxy-10-(1-methyl-1H-tetrazol-5-yl)-6,8,10-undecatrienoate] | 5700 nM | – | – | – | – |
| CC[C@H](C)C(=O)O[C@H]1C[C@@H](C)C=C2C=C[C@H](C)[C@H](CC[C@@H]3C[C@@H](O)CC(=O)O3)[C@H]21 [Mevinolin (Lovastatin), reference compound] | – | – | – | 46 ± 26 nM | 0.04 mg/kg |
